Test results as given in patent US9802921B2, “Fluoromethyl-substituted pyrrole carboxamides iv” (Grünenthal GmbH, priority 2013, dated 2017).

Biological target: T1, Human CaV2.2 channels (Homo sapiens, UniProt Q00975)
T1 construct: expressed in transfected cells
Assay: Fluorescent assay for CaV2.2 channels using potassium depolarization to induce channel opening (FLIPR, Fluo 4)
Format: cell-based
Details: read-out: Activity Category: %-Inhib (CaV2.2) @3 μM @30 mM KCl; 3 μM test compound; 30 mM KCl as printed; HEK293 cells stably expressing human CaV2.2
Text: In the process, the Ca^2+ influx is quantified in the FLIPR assay with the aid of a Ca^2+-sensitive dye (type Fluo-4, Molecular Probes Europe BV, Leiden, the Netherlands) in a fluorescent imaging plate reader (FLIPR 3, Molecular Devices, Sunnyvale, USA), as described hereinafter.
Human CaV2.2 channels were stably expressed in HEK293 cells together with alpha2-delta and beta subunits of voltage gated calcium channels. In addition, an inwardly rectifying potassium channel (Kir2.3) was stably expressed in these cells to augment control of the cell membrane potential by the concentration of extracellular potassium ions. Raise of the extracellular potassium concentration leads to depolarization of the membrane potential and thus regulates the voltage dependent state of CaV2.2 channels. For preparation, cells were seeded in black poly-D-lysine coated 96-well plates (Becton Dickinson, Biocoat 4640) in 100 μL medium [500 mL DMEM/F-12 plus Glutamax (Invitrogen 31331-093) plus 5.5 mL MEM NEAA 100× (Invitrogen 11140-035) plus 50 mL FBS decomplemented (Invitrogen 10270-106) plus 200 μg/mL Geneticin (Invitrogen 10131-027) plus 50 μg/mL Hygromycin B (Invitrogen 10687-010) plus 2 μg/mL Blasticidin (anti-bl5b Invivo-Gen) plus 0.2 μg/mL Puromycin (A 11138-03)] at a cell density of 30.000 cells per well. Plates were incubated at 37° C. (5% CO2) for 20 to 23 h. On the day of experiment medium was discarded and cells were loaded with Fluo 4 by addition of 100 μL of basic assay buffer (10 mM HEPES, 1 mM KCl, 149 mM NaCl, 0.8 mM CaCl2, 1.7 mM MgCl2, 10 mM Glucose, 0.1% BSA. pH 7.4) containing 2 μM Fluo 4 (Molecular Probes; F-14201), 0.01% pluronic acid (Molecular Probes; P-6866) and 2.5 mM probenecid (Molecular Probes; P36400). Cells were incubated in the dark at 25° C. for 60 min. Then dye containing buffer was discarded and 100 μL basic (1 mM KCl) or alternative (30 mM KCl) assay buffer was added. The alternative assay buffer contained altered concentrations of KCl (30 mM) and NaCl (120 mM) and was used in order to promote the inactivated channel state. After that 25 μL of basic or alternative assay buffer with or without test compound were added and cells were incubated again in the dark at 25° C. for 15 min. Fluorescence intensity was measured on a FLIPR 3 instrument (Molecular Devices Corp., Sunnyvale, Calif.) with excitation at 480 nm and emission at 535 nm. After continuously reading fluorescence for 30 sec, 50 μL of basic assay buffer containing 210 mM KCl (NaCl omitted) were added for depolarization. Peak fluorescent signal intensity was determined and the amplitude of the peak signal, normalized to base line, was used to measure channel inhibition by test compounds.

T1 sequence (Q00975 whole entry): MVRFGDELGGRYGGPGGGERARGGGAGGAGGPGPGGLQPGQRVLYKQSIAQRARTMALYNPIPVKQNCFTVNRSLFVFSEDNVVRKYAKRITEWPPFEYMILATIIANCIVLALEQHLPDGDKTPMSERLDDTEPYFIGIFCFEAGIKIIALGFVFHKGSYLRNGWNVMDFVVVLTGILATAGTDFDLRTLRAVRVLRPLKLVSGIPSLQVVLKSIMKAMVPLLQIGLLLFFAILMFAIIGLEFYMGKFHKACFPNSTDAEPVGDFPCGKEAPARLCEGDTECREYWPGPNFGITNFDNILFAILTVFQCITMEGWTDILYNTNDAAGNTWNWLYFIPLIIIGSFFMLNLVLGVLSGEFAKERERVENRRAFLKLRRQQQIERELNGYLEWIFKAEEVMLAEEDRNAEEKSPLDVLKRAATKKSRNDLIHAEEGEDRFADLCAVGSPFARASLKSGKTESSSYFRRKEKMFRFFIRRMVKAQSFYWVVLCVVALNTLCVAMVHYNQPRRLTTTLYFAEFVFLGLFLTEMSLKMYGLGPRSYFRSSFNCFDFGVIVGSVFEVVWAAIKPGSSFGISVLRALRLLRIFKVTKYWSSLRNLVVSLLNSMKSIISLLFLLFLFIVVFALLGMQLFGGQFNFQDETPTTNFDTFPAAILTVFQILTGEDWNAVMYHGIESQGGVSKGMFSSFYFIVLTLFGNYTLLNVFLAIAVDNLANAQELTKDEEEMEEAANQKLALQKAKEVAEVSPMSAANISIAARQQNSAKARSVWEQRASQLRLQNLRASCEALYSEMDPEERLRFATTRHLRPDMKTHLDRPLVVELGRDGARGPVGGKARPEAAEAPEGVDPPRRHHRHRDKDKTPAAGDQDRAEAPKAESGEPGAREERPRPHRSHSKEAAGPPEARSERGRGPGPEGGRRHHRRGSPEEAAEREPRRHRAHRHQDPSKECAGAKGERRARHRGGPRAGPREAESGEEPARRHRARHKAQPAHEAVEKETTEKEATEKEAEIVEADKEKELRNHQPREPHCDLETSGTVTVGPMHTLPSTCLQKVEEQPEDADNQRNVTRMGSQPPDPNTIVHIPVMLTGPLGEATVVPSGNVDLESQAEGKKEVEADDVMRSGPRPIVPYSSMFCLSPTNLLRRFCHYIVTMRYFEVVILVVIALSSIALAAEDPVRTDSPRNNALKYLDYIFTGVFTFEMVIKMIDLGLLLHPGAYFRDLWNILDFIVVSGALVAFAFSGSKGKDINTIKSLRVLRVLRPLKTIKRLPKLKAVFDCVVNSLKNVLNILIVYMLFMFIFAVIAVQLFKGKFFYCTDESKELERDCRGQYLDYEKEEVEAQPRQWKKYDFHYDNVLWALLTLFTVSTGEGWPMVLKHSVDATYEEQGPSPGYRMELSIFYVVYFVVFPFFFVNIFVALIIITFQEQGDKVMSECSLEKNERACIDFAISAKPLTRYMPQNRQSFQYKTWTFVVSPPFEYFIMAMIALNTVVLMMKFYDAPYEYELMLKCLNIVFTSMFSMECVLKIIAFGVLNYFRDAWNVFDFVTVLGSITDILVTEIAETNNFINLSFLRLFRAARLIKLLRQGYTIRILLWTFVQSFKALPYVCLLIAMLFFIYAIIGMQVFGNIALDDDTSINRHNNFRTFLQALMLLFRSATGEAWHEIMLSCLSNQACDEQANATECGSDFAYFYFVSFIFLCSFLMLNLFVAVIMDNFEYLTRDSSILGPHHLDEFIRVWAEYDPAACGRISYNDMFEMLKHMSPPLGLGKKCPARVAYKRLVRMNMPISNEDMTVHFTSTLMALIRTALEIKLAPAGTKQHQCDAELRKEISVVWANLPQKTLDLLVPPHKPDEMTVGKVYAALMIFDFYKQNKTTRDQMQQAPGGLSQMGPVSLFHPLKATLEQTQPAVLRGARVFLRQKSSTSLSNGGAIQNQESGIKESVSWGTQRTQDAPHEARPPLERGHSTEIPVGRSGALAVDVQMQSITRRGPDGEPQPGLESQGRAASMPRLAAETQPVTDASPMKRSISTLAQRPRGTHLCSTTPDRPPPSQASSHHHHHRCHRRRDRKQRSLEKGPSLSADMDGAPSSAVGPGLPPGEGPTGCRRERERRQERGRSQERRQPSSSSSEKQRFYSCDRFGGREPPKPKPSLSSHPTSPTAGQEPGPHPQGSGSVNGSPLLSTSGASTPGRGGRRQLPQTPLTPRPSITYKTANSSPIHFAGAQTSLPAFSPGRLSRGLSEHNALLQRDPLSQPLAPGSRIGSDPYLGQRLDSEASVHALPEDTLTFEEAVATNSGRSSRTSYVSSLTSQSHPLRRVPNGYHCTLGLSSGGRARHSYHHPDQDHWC
T1 sequence (P54289 25-1103, further chain): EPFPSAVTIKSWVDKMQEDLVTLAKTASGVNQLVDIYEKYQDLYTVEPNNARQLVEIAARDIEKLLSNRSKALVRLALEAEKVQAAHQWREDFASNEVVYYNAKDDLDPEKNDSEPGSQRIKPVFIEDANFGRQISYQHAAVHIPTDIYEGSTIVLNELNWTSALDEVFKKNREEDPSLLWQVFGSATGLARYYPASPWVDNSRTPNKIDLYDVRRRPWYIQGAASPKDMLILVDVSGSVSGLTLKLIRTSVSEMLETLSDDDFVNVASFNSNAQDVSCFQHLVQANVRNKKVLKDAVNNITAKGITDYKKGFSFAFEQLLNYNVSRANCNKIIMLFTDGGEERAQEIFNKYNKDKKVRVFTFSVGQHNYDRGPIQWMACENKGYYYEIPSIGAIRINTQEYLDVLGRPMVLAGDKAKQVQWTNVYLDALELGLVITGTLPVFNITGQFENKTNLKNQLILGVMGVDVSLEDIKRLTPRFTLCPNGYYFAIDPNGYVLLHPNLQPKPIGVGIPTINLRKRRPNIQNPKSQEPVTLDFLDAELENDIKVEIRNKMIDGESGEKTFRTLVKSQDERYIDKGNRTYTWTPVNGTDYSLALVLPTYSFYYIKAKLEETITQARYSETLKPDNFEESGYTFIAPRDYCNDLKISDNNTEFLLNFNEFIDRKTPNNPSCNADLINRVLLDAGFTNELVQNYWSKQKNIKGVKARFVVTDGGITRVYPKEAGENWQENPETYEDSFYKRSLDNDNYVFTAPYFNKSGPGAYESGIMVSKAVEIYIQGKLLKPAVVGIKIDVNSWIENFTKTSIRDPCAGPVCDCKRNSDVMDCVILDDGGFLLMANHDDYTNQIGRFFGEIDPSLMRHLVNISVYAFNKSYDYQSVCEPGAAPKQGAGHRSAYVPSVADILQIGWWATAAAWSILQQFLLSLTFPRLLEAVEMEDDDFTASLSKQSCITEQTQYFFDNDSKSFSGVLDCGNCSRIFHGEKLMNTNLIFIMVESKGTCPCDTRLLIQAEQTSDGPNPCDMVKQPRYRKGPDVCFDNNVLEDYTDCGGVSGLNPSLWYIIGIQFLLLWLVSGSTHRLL
T1 sequence (P54284 whole entry, further chain): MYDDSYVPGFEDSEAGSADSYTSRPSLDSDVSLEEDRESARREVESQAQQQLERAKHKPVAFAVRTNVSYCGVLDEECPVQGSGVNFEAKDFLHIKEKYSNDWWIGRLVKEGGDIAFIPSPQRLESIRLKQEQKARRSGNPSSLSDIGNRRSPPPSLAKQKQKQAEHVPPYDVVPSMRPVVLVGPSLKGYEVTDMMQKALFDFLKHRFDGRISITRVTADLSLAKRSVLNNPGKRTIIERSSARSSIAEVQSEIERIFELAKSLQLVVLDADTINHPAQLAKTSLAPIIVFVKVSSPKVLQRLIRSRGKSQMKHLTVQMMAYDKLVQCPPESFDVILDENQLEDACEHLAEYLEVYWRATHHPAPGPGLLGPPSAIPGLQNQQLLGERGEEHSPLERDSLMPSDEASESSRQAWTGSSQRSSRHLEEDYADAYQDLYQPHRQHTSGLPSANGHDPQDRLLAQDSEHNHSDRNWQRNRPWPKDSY

With `Cc1c(-c2ccc(Cl)cc2)c(C(=O)N2CCOCC2)n(CCn2ccccc2=O)c1C(F)(F)F` [Example 055, 1-[2-[3-(4-Chlorophenyl)-4-methyl-2-(morpholine-4-carbonyl)-5-(trifluoromethyl)-1H-pyrrol-1-yl]-ethyl]-1H-pyridin-2-one] the inhibition at 3 µM was 40 to 75%.
Compound `Cc1c(-c2ccc(Cl)cc2)c(C(=O)N2CCOCC2)n(Cn2ccccc2=O)c1C(F)(F)F` [Example 056, 1-[[3-(4-Chlorophenyl)-4-methyl-2-(morpholine-4-carbonyl)-5-(trifluoromethyl)-1H-pyrrol-1-yl]-methyl]-1H-pyridin-2-one] has an inhibition at 3 µM of 75 to 95%.
Compound `Cc1c(-c2ccc(Cl)cc2)c(C(=O)N2CCOCC2)n(Cc2ncn[nH]2)c1C(F)(F)F` [Example 060, [3-(4-Chlorophenyl)-4-methyl-1-(1H-[1,2,4]triazol-3-yl-methyl)-5-(trifluoromethyl)-1H-pyrrol-2-yl]-morpholin-4-yl-methanone] has an inhibition at 3 µM of 40 to 75%.
With `Cc1c(-c2ccc(Cl)cc2)c(C(=O)N(C)C(C)C)n(Cc2ncccn2)c1C(F)(F)F` [Example 061, 3-(4-Chlorophenyl)-N-isopropyl-N,4-dimethyl-1-(pyrimidin-2-yl-methyl)-5-(trifluoromethyl)-1H-pyrrole-2-carboxylic acid amide] the inhibition at 3 µM was > 95%.
In the case of `Cc1c(-c2ccc(Cl)cc2F)c(C(=O)N2CCOCC2)n(Cc2ncccn2)c1C(F)(F)F` [Example 062, [3-(4-Chloro-2-fluoro-phenyl)-4-methyl-1-(pyrimidin-2-yl-methyl)-5-(trifluoromethyl)-1H-pyrrol-2-yl]-morpholin-4-yl-methanone], the inhibition at 3 µM is reported as > 95%.
`Cc1c(-c2ccc(Cl)cc2F)c(C(=O)N(C)C2CC2)n(Cc2ncccn2)c1C(F)(F)F` [Example 063, 3-(4-Chloro-2-fluoro-phenyl)-N-cyclopropyl-N,4-dimethyl-1-(pyrimidin-2-yl-methyl)-5-(trifluoromethyl)-1H-pyrrole-2-carboxylic acid amide] was tested, and the inhibition at 3 µM was > 95%.
With `Cc1c(-c2ccc(Cl)cc2F)c(C(=O)N(C)C(C)C)n(Cc2ncccn2)c1C(F)(F)F` [Example 064, 3-(4-Chloro-2-fluoro-phenyl)-N-isopropyl-N,4-dimethyl-1-(pyrimidin-2-yl-methyl)-5-(trifluoromethyl)-1H-pyrrole-2-carboxylic acid amide] the inhibition at 3 µM was > 95%.
Compound `Cc1noc(Cn2c(C(F)(F)F)cc(-c3ccc(F)cc3)c2C(=O)N(C)C(C)C)n1` [Example 065, 3-(4-Fluorophenyl)-N-isopropyl-N-methyl-1-[(3-methyl-[1,2,4]oxadiazol-5-yl)-methyl]-5-(trifluoromethyl)-1H-pyrrole-2-carboxylic acid amide] has an inhibition at 3 µM of 75 to 95%.
In the case of `Cc1cc(CN(C)C(=O)c2c(-c3ccc(Cl)cc3F)c(C)c(C(F)(F)F)n2Cc2ncccn2)no1` [Example 066, 3-(4-Chloro-2-fluoro-phenyl)-N,4-dimethyl-N-[(5-methyl-isoxazol-3-yl)-methyl]-1-(pyrimidin-2-yl-methyl)-5-(trifluoromethyl)-1H-pyrrole-2-carboxylic acid amide], the inhibition at 3 µM is reported as > 95%.
In the case of `Cc1cc(Cn2c(C(=O)N(C)C(C)C)c(-c3ccc(Cl)cc3)c(C)c2C(F)(F)F)on1` [Example 067, 3-(4-Chlorophenyl)-N-isopropyl-N,4-dimethyl-1-[(3-methyl-isoxazol-5-yl)-methyl]-5-(trifluoromethyl)-1H-pyrrole-2-carboxylic acid amide], the inhibition at 3 µM is reported as > 95%.
`Cc1cc(Cn2c(C(=O)N(C)C(C)C)c(-c3ccc(Cl)cc3)c(C)c2C(F)(F)F)no1` [Example 068, 3-(4-Chlorophenyl)-N-isopropyl-N,4-dimethyl-1-[(5-methyl-isoxazol-3-yl)-methyl]-5-(trifluoromethyl)-1H-pyrrole-2-carboxylic acid amide] was tested, and the inhibition at 3 µM was > 95%.
With `Cc1c(-c2ccc(Cl)cc2)c(C(=O)N(C)C(C)C)n(Cc2nncs2)c1C(F)(F)F` [Example 069, 3-(4-Chlorophenyl)-N-isopropyl-N,4-dimethyl-1-([1,3,4]thiadiazol-2-yl-methyl)-5-(trifluoromethyl)-1H-pyrrole-2-carboxylic acid amide] the inhibition at 3 µM was > 95%.
